One experiment has as its target T1, Human recombinant COX-2 (Homo sapiens, UniProt P35354).
T1 construct: purchased Cayman Chemical, Ann Arbor, USA 60122
T1 sequence (P35354 18-604): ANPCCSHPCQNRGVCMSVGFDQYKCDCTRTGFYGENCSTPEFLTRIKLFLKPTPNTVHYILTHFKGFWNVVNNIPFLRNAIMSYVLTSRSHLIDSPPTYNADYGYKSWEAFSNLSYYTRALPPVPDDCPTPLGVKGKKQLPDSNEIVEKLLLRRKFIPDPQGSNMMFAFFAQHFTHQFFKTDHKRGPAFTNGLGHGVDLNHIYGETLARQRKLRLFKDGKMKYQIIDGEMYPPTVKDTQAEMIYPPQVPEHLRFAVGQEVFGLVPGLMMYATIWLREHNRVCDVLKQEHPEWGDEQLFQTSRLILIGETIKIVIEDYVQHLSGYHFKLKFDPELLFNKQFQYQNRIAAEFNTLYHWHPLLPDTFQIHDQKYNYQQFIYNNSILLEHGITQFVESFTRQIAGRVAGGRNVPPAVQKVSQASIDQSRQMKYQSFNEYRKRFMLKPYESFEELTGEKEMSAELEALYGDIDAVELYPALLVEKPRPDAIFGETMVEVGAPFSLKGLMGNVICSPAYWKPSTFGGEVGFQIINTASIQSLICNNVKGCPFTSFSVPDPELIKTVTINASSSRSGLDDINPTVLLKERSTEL
As to the kind of experiment: spectrophotometric TMPD assay, COX-2. It counts as biochemical. Conditions: 15 min preincubation at 25° C., read-out: Human recombinant COX-2 IC50 (μM) ± S.E.M. As to the method:
(§1) The Human recombinant COX-2 and sheep COX-1 activity were determined by spectrophotometric TMPD assay (K. Gierse, S. D. Hauser, D. P. Creely, C. M. Koboldt, S. H. Rangwala, P. C. Isakson and K. Seibert: Expression and selective inhibition of the constitutive and inducible forms of human cyclo-oxygenase Biochem. J. 305: 479-484 (1995)).
(§2) The Human recombinant COX-2 and sheep COX-1 activity were measured by spectrophotometric assay based on oxidation of N,N,N′,N′,-tetramethyl-p-phenylenediamine (TMPD). During the reduction of the prostaglandine G2 (PGG2) to prostaglandine endoperoxid H2 (PGH2), the TMPD is being oxidated to a colour product, which can be measured by spectrophotometer at 610 nm.
(§3) 4 μl of solution of inhibitors in different concentrations was added to the 156 μl of reaction mixture (100 mM sodium phosphate buffer, pH:6.5, 1 μM hematin, 1 mg/ml gelatine). Afterwards 20 μl solution of 50 unit human recombinant COX-2 enzym or 20 μl of 50 unit sheep COX-1 enzym (Cayman Chemical, Ann Arbor, USA, cat no.: 60122/COX-2/, cat. no.: 60100/COX-1/) was added. The incubation mixture: was preincubated for 15 minutes at 25° C. in a spectrophotometric 96-well plate reader (Labsystem iEMS Reader MF). Following this, the mixture of 20 μl 1 mM arachidonic acid and 1 mM TMPD solution were added. It was shaken for 10 second and the absorbance was measured at 610 nm.

The target of the next experiment is T2, sheep COX-1 (Ovis aries, UniProt P05979).
T2 construct: purchased Cayman Chemical, Ann Arbor, USA 60100
T2 sequence (P05979 25-600): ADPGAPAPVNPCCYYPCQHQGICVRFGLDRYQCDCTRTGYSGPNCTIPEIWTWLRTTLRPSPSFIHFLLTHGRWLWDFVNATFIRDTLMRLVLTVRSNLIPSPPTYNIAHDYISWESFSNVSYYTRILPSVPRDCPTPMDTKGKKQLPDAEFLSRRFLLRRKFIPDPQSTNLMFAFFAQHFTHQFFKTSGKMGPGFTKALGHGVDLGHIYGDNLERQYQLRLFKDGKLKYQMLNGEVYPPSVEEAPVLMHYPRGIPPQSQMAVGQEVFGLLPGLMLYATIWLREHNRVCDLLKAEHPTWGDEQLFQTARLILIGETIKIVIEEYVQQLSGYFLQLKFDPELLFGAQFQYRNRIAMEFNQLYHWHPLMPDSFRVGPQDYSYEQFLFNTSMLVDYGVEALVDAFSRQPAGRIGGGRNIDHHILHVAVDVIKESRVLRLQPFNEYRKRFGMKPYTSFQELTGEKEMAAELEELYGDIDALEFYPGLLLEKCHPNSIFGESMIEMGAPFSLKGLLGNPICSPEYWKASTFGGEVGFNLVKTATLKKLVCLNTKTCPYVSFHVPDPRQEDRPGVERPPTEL
As to the kind of experiment: spectrophotometric TMPD assay, COX-1. It counts as biochemical. Conditions: 15 min preincubation at 25° C., read-out: Sheep COX-1 IC50 (μM) ± S.E.M. As for the experimental part:
as §1, §2, §3

The test system of experiment [1] is inflammatory mechanical allodynia induced by carrageenan. Put plainly: Carrageenan-induced inflammatory mechanical allodynia (von Frey). It counts as in vivo, male Sprague-Dawley rats. Conditions: 30 mg/kg p.o. As to the method: The-threshold of pain of the animals was measured by von Frey apparatus (IITC, type: 1601 C). […] The values were registered in the times of the pick up or raises. During each measurment the threshold was determined at least thrice and the avarage was calculated from the peak values.
Male Sprague-Dawley rats (weighing 250-300 g) were used (n=5-6/group). 100 μl of saline solution of carrageenant (CA) was injected to the middle of the paw. The stimulus threshold was measured after it, and the treatment was completed with gastro-probe per os. The effects of the materials were measured in 30, 60, 90, 120 minutes after the treatments. The effects were compared for control group treatment with vehicle (solution of 2% Tween-80).
The effect was calculated as follows: [formula] where tx=30, 60, 90, 120 min
In the acute pain model the analgesic effects of the valdecoxib and compound of example 1 were considerable with dose of 30 mg/kg p.o. once.

As usually defined, the IC50 is the concentration that inhibits the measured activity by half.

As to “N-hydroxi-4-(3-phenyl-5-methyl-isoxazole-4-yl)-benzenesulfonamide monohydrate [example 1]”, the IC50 on Human recombinant COX-2 was determined as 1.1 ± 0.3 µM; at sheep COX-1, 101 ± 12.5 µM. Further, the “Analgesic effect in % after p.o. treatment” value is 61.6% in experiment [1] (30 min.), 57.1% in experiment [1] (1 hour), 44.5% in experiment [1] (1.5 hour) and 41.5% in experiment [1] (2 hours).
